For one test, the system named is HeLa. Nature of the test: Proliferation assay (HeLa cell line).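 Further: crystal violet staining of cell number, scaled between a plate stained before dosing (0%) and cells left untreated (100%), compounds tested at 0.001-10 µM, IC50 via 4-parameter fit.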 The following applies: Homo sapiens, 96 h, read-out: Biological Assay 2: Proliferation assay (HeLa cell line) median IC50.
In a further test the target is Bub1 (Homo sapiens, UniProt O43683). The experiment in a line: Formation-Assay: phosphorylation status of histone 2A by inhibition of kinase activity of Bub1. The following applies: Biological Assay 4.1: H2A Formation IC50, co-treatment with Nocodazole 1 μg/ml, 16 h. In kind it is cell-based. How it is done:
Biological Assay 4.1: Formation-Assay
Cell-Based Mechanistic Assay: Changes of Phosphorylation Status of Histone 2A by Inhibition of Kinase Activity of Bub1
This assay determines the suppression of histone 2A phosphorylation by a Bub1 kinase inhibitor during co-treatment with Nocodazole. 25000 cells (cells were ordered from ATCC) were seeded in 96 well plate for 5 h at 37° C. Cells were treated with Nocodazole (1 μg/ml) and varying concentrations (between 3 nM and 10 μM) of test compounds for 16 h. Cells were fixed (20 min, Fixing solution R&D), washed three times with PBS and blocked with Odyssey blocking buffer before incubating with the primary antibody against phosphorylated H2A (5 μg/ml ABIN482721) overnight at 2-8° C. After washing, secondary IRDye-labeled antibody mix with cell stains was added for 1 h and washed again with PBS. Plates were scanned with LiCor Odyssey Infrared Imager CLx at 800 nm for P-H2A and at 700 nm for cell stains Draq5/Sapphire. The quotient of 800 nm and 700 nm for Nocodazole only treated cells was set as 100% and the quotient of 800 nm and 700 nm of untreated cells was set as 0%.
Histone H2A is an immediate intracellular substrate of Bub1 kinase. Determination of the phosphorylation status of Histone H2A provides a direct measure of the intracellular activity of Bub1 kinase.

Test [1] has as its system HeLa human cervical tumor cells. The experiment in a line: Proliferation assay (HeLa+Paclitaxel).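 Further: compounds at 0.001-10 µM added 4 h after paclitaxel, 92 h exposure, absorbance normalized to zero-point plate (0%) and untreated cells (100%), IC50 from 4-parameter fit.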 The following applies: read-out: Biological Assay 3: HeLa + Paclitaxel IC50, 3 nM paclitaxel, crystal violet.
Test [2] addresses T1, catalytic domain of human Bub1 (amino acids 704-1085) (Homo sapiens, UniProt O43683).
T1 construct: catalytic domain of human Bub1 (amino acids 704-1085); His6 (N); made in house; host or cells: Hi5 insect cells
The experiment in a line: Bub1 kinase assay (TR-FRET). It counts as biochemical. The method, boiled down: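 Compounds from 2 mM DMSO stocks, serially diluted 1:3.4, incubated with enzyme at 22° C for 60 min. Stopped with EDTA, then 1 h with streptavidin-XL665, anti-phosphoserine antibody and Eu-labelled anti-mouse IgG. Phosphorylated biotin-peptide read by TR-FRET; IC50 by 4-parameter logistic fit.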
(In general: Time-resolved FRET reads energy transfer from a long-lived donor to a nearby acceptor.)

[3] abbreviates: Biological Assay 1: Bub1 kinase assay median IC50, 10 μM ATP.
Where [4] appears, read: 10 μM ATP, read-out: Biological Assay 1: Bub1 kinase assay median IC50.

Where a name gives a salt, the structure may show the parent alone. Read-outs that look alike come from different tables or passages of the source.

From patent US20170275270A1, “BENZYL SUBSTITUTED INDAZOLES” (Bayer Pharma Aktiengesellschaft, priority 2014, published 2017) come the findings set out here.

T1 sequence (O43683 704-1085): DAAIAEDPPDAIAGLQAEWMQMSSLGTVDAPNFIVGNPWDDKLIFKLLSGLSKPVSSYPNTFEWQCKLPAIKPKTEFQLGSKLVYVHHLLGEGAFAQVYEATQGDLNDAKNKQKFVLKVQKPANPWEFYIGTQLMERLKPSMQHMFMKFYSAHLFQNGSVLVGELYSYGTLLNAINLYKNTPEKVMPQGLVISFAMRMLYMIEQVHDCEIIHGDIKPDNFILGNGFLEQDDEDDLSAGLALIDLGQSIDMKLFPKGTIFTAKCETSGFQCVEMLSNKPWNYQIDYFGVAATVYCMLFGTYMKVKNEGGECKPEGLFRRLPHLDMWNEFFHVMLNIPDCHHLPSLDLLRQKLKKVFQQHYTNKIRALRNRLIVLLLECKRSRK
Sequence of Bub1 (O43683 whole entry): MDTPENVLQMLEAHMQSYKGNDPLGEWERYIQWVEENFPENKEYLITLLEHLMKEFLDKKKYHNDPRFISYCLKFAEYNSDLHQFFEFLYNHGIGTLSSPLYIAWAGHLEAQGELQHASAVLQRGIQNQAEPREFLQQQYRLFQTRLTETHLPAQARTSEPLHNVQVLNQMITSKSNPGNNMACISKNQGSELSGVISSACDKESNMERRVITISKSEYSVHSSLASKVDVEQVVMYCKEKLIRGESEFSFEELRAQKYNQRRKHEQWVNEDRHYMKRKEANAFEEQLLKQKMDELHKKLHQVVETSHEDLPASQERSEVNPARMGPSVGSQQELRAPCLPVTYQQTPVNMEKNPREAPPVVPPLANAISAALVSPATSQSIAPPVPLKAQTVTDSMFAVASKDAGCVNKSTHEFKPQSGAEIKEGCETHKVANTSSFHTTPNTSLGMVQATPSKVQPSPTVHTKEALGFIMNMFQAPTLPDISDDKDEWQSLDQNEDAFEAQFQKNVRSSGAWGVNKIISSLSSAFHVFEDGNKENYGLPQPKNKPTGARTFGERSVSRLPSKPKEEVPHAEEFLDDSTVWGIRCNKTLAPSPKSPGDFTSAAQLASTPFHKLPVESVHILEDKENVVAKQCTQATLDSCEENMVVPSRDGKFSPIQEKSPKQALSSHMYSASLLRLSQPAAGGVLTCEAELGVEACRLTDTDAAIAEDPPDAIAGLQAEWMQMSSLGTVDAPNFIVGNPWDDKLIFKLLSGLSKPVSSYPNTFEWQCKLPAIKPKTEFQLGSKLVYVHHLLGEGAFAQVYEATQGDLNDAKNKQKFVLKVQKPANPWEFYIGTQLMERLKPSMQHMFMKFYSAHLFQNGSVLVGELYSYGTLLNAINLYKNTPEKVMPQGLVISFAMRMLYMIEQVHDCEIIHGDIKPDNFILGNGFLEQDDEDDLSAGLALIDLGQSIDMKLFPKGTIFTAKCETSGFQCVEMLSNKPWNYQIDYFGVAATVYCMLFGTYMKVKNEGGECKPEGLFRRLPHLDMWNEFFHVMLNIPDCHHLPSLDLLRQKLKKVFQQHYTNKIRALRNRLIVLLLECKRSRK

As for `CCOc1cc(F)c(Cn2nc(-c3nc(CC)cc(Nc4ccnc(NC(C)=O)c4)n3)c3ccccc32)c(F)c1` [Example 2-12-22, N-[4-({2-[1-(4-ethoxy-2,6-difluorobenzyl)-1H-indazol-3-yl]-6-ethylpyrimidin-4-yl}amino)pyridin-2-yl]acetamide], the IC50 with HeLa amounted to 1200 nM; at Bub1, 35 nM; in test [1], 750 nM; in test [2] (setting [3]), 9.3 nM.
In the case of `CCOc1cc(F)c(Cn2nc(-c3ncc(CC[S@](C)(=N)=O)c(Nc4ccncc4)n3)c3ccccc32)c(F)c1` [Example 2-7-1, 2-[1-(4-ethoxy-2,6-difluorobenzyl)-1H-indazol-3-yl]-5-[2-(S-methylsulfonimidoyl)ethyl]-N-(pyridin-4-yl)pyrimidin-4-amine], the IC50 with HeLa was 3500 nM; at Bub1, 570 nM; in test [1], 450 nM; in test [2] (setting [3]), 6.3 nM.
`CCOc1cc(F)c(Cn2nc(-c3nc4c(c(Nc5ccncc5F)n3)CCC4)c3ccccc32)c(F)c1` [Example 2-14-1, 2-[1-(4-ethoxy-2,6-difluorobenzyl)-1H-indazol-3-yl]-N-(3-fluoropyridin-4-yl)-6,7-dihydro-5H-cyclopenta[d]pyrimidin-4-amine]: the IC50 in the test on HeLa stood at 10000 nM; at Bub1, 2.8 nM; in test [1], 680 nM; in test [2] (setting [4]), 9.6 nM.
Turning to `OCCOc1cc(F)c(Cn2nc(-c3ncc(C4CCN(CCC(F)(F)F)CC4)c(Nc4ccncc4Cl)n3)c3ccccc32)c(F)c1` [Example 2-6-15, 2-{4-[(3-{4-[(3-chloropyridin-4-yl)amino]-5-[1-(3,3,3-trifluoropropyl)piperidin-4-yl]pyrimidin-2-yl}-1H-indazol-1-yl)methyl]-3,5-difluorophenoxy} ethanol], the IC50 in the test with HeLa worked out at 2200 nM; at Bub1 it was 19 nM; in test [1], 180 nM; in test [2] (setting [3]) it was 31 nM.
The matching figures for `CCOc1cc(F)c(Cn2nc(-c3nc4c(c(Nc5ccnc(C(F)(F)F)c5)n3)CNC4)c3ccccc32)c(F)c1` [Example 2-9-15, 2-[1-(4-ethoxy-2,6-difluorobenzyl)-1H-indazol-3-yl]-N-[2-(trifluoro-methyl)pyridin-4-yl]-6,7-dihydro-5H-pyrrolo[3,4-d]pyrimidin-4-amine, salt with hydrochloric acid]: 4000 nM, 2.8 nM, 340 nM and 3300 nM.
With `COc1cnccc1Nc1nc(-c2nn(Cc3c(F)cc(OCCO)cc3F)c3ccccc23)nc2c1CCC2` [Example 2-4-5, 2-{3,5-difluoro-4-[(3-{4-[(3-methoxypyridin-4-yl)amino]-6,7-dihydro-5H-cyclopenta[d]pyrimidin-2-yl}-1H-indazol-1-yl)methyl]phenoxy}ethanol], the IC50 worked out at 2600 nM in the test on HeLa, 3900 nM at Bub1, 180 nM in test [1] and 28 nM in test [2] (setting [4]).
The matching figures for `CCOc1cc(F)c(Cn2nc(-c3nc(CN4CCOCC4)cc(Nc4ccncc4OC)n3)c3ccccc32)c(F)c1` [Example 2-19-13, 2-[1-(4-ethoxy-2,6-difluorobenzyl)-1H-indazol-3-yl]-N-(3-methoxypyridin-4-yl)-6-(morpholin-4-ylmethyl)pyrimidin-4-amine]: 3400 nM, 3800 nM, 130 nM and 7.7 nM.
Consider `CCOc1cc(F)c(Cn2nc(-c3ncc(CN)c(Nc4ccnc(C(F)F)c4)n3)c3ccccc32)c(F)c1` [Example 2-9-6, 5-(aminomethyl)-N-[2-(difluoro-methyl)pyridin-4-yl]-2-[1-(4-ethoxy-2,6-difluorobenzyl)-1H-indazol-3-yl]pyrimidin-4-amine, salt with hydrochloric acid], for which the IC50 worked out at 3700 nM in the test with HeLa, 2.9 nM on Bub1, 260 nM in test [1] and 90 nM in test [2] (setting [4]).
The matching figures for `CCOc1cc(F)c(Cn2nc(-c3nc4c(c(Nc5ccnc(C)c5)n3)CSC4)c3ccccc32)c(F)c1` [Example 2-19-4, 2-[1-(4-ethoxy-2,6-difluorobenzyl)-1H-indazol-3-yl]-N-(2-methylpyridin-4-yl)-5,7-dihydrothieno[3,4-d]pyrimidin-4-amine]: 1200 nM, 45 nM, 130 nM and 68 nM.
The matching figures for `CCOc1cc(F)c(Cn2nc(-c3ncc(CC4CNC4)c(Nc4ccncc4)n3)c3ccccc32)c(F)c1` [Example 2-9-4, 5-(azetidin-3-ylmethyl)-2-[1-(4-ethoxy-2,6-difluorobenzyl)-1H-indazol-3-yl]-N-(pyridin-4-yl)pyrimidin-4-amine, salt with hydrochloric acid]: 1900 nM, 440 nM, 420 nM and 7.8 nM.
With `CCOc1cc(F)c(Cn2nc(-c3ncc(OCCO)c(Nc4ccncc4)n3)c3ccccc32)c(F)c1` [Example 3-1-1, 2-({2-[1-(4-ethoxy-2,6-difluorobenzyl)-1H-indazol-3-yl]-4-(pyridin-4-ylamino)pyrimidin-5-yl}oxy)ethanol, reference compound], the IC50 in the test with HeLa came out at 1500 nM; at Bub1, 1100 nM; in test [1] it was 1400 nM; in test [2] (setting [3]), 11 nM.
Take `CCOc1cc(F)c(Cn2nc(-c3ncc(CCN)c(Nc4ccncc4)n3)c3ccccc32)c(F)c1` [Example 2-9-2, 5-(2-aminoethyl)-2-[1-(4-ethoxy-2,6-difluorobenzyl)-1H-indazol-3-yl]-N-(pyridin-4-yl)pyrimidin-4-amine]: the IC50 was determined as 1100 nM in the test with HeLa, 1600 nM at Bub1, 360 nM in test [1] and 8.8 nM in test [2] (setting [4]).
The matching figures for `CCOc1cc(F)c(Cn2nc(-c3nc(CN4CCOCC4)cc(Nc4ccncc4F)n3)c3ccccc32)c(F)c1` [Example 2-19-12, 2-[1-(4-ethoxy-2,6-difluorobenzyl)-1H-indazol-3-yl]-N-(3-fluoropyridin-4-yl)-6-(morpholin-4-ylmethyl)pyrimidin-4-amine]: 4000 nM, 63 nM, 250 nM and 11 nM.
With `CCOc1cc(F)c(Cn2nc(-c3nc4c(c(Nc5ccnc(C)n5)n3)CC(C)(C)C4)c3ccccc32)c(F)c1` [Example 2-12-60, 2-[1-(4-ethoxy-2,6-difluorobenzyl)-1H-indazol-3-yl]-6,6-dimethyl-N-(2-methylpyrimidin-4-yl)-6,7-dihydro-5H-cyclopenta[d]pyrimidin-4-amine], the IC50 with HeLa is greater than 10000 nM; at Bub1, 3.9 nM; in test [1], 86 nM; in test [2] (setting [3]) it was 38 nM.
For `CCOc1cc(F)c(Cn2nc(-c3ncc(C4CCN(CC(F)(F)F)CC4)c(Nc4ccnc(NC(C)=O)c4)n3)c3ccccc32)c(F)c1` [Example 2-20-1, N-[4-({2-[1-(4-ethoxy-2,6-difluorobenzyl)-1H-indazol-3-yl]-5-[1-(2,2,2-trifluoroethyl)piperidin-4-yl]pyrimidin-4-yl}amino)pyridin-2-yl]acetamide], in that order: greater than 10000 nM, 110 nM, 130 nM and 17 nM.
